What was measured:
[1] = Dissociation constant was determined; type: physicochemical
[2] = Partition coefficient (logP); type: physicochemical; details: octanol/water
[3] = In vitro antibacterial activity was determined; type: functional
[4] = In vitro antibacterial activity was determined; antibacterial potency is less than 50% of that of lasalocid; type: functional

Structure (SMILES) | pKa [1] | logP [2] | Activity [3] | Activity [4]
CC[C@@H](C(=O)[C@@H](C)[C@@H](O)[C@H](C)CCc1c(I)cc(C)c(O)c1C(=O)O)[C@H]1O[C@](CC)([C@H]2CC[C@](O)(CC)[C@H](C)O2)C[C@@H]1C [IODOLASALOCID] | 3.9 | 3.19 | 1 | –
CC[C@@H](C(=O)[C@@H](C)[C@@H](O)[C@H](C)CCc1c(NC(C)=O)cc(C)c(O)c1C(=O)O)[C@H]1O[C@](CC)([C@H]2CC[C@](O)(CC)[C@H](C)O2)C[C@@H]1C | 4.3 | 1.04 | – | 0
CC[C@@H](C(=O)[C@@H](C)[C@@H](O)[C@H](C)CCc1c([N+](=O)[O-])cc(C)c(O)c1C(=O)O)[C@H]1O[C@](CC)([C@H]2CC[C@](O)(CC)[C@H](C)O2)C[C@@H]1C | 2.4 | 2.46 | – | 0
CC[C@@H](C(=O)[C@@H](C)[C@@H](O)[C@H](C)CCc1c(/N=C/c2ccccc2)cc(C)c(O)c1C(=O)O)[C@H]1O[C@](CC)([C@H]2CC[C@](O)(CC)[C@H](C)O2)C[C@@H]1C | – | 0.86 | – | 0
CC[C@@H](C(=O)[C@@H](C)[C@@H](O)[C@H](C)CCc1ccc(C)c(OC(=O)c2ccc(Br)cc2)c1C(=O)O)[C@H]1O[C@](CC)([C@H]2CC[C@](O)(CC)[C@H](C)O2)C[C@@H]1C | – | 3.48 | – | 0
CC[C@@H](C(=O)[C@@H](C)[C@@H](O)[C@H](C)CCc1c(N)cc(C)c(O)c1C(=O)O)[C@H]1O[C@](CC)([C@H]2CC[C@](O)(CC)[C@H](C)O2)C[C@@H]1C [AMINOLASALOCID] | 6 | 0.28 | – | 0
CCCCCCCC(=O)Oc1c(C)ccc(CC[C@@H](C)[C@H](O)[C@H](C)C(=O)[C@H](CC)[C@H]2O[C@](CC)([C@H]3CC[C@](O)(CC)[C@H](C)O3)C[C@@H]2C)c1C(=O)O | – | 2.21 | – | 0
CC[C@@H](C(=O)[C@@H](C)[C@@H](O)[C@H](C)CCc1c(Cl)cc(C)c(O)c1C(=O)O)[C@H]1O[C@](CC)([C@H]2CC[C@](O)(CC)[C@H](C)O2)C[C@@H]1C [CHLOROLASALOCID] | 4 | 3.12 | 1 | –
CC[C@@H](C(=O)[C@@H](C)[C@@H](O)[C@H](C)CCc1c(Br)cc(C)c(O)c1C(=O)O)[C@H]1O[C@](CC)([C@H]2CC[C@](O)(CC)[C@H](C)O2)C[C@@H]1C [BROMOLASALOCID] | 3.9 | 3.25 | 1 | –
CCCCC(=O)Oc1c(C)ccc(CC[C@@H](C)[C@H](O)[C@H](C)C(=O)[C@H](CC)[C@H]2O[C@](CC)([C@H]3CC[C@](O)(CC)[C@H](C)O3)C[C@@H]2C)c1C(=O)O | – | 2.08 | – | 0
CC[C@@H](C(=O)[C@@H](C)[C@@H](O)[C@H](C)CCc1c([N+]#N)cc(C)c(O)c1C(=O)O)[C@H]1O[C@](CC)([C@H]2CC[C@](O)(CC)[C@H](C)O2)C[C@@H]1C [DIAZOLASALOCID] | 6.6 | – | – | 0
CCCCCCCCCC(=O)Oc1c(C)ccc(CC[C@@H](C)[C@H](O)[C@H](C)C(=O)[C@H](CC)[C@H]2O[C@](CC)([C@H]3CC[C@](O)(CC)[C@H](C)O3)C[C@@H]2C)c1C(=O)O | – | 2.75 | – | 0
CC[C@@H](C(=O)[C@@H](C)[C@@H](O)[C@H](C)CCc1ccc(C)c(O)c1C(=O)O)[C@H]1O[C@](CC)([C@H]2CC[C@](O)(CC)[C@H](C)O2)C[C@@H]1C [LASALOCID] | 4.4 | 2.83 | 1 | –

Reference: ChEMBL document CHEMBL1123592, “Cluster significance analysis contrasted with three other quantitative structure-activity relationship methods” (J Med Chem, 1987)
